Laboratory results as given in patent US20230390224A1, “UNITARY ORAL DOSAGE FORM IN BASE OF SPHERICAL AND/OR SPHEROIDAL SHAPED PARTICLES” (ATOMIC PHARMACEUTICS INC., priority 2022, published 2023).
Counter-ions that a name gives are not always drawn.

Assays:
[1] = cited from earlier work
[2] = cited from earlier work; remark: listed apart in the source
[3] = Release of API from gel particles into liquid medium B (spectrophotometry; Weibull Fmax, Higuchi release rate); type: physicochemical; conditions: liquid medium B and liquid medium C
Method: To the measurements of APIs release, the APIs concentrations were determined spectrophotometrically, by sampling in a Thermo Spectronic Genesys 10 UV equipment. Each of the measurements were performed in duplicate or more trials. The wavelengths occupied will depend on each API tested (for example, 243 nm for acetaminophen, 230 nm for naproxen).
To evaluate each of the experiments carried out and adjust the concentration points during the release experiments, various methods were used: zero order models, first order, Higuchi, Hixson-Crowell, square root of the mass, root 3/2 of the mass, Weibull and Korsmeyer-Peppas. The model that best fits the concentration points during the release experiments was a Weibull model (Vasiliki Papadopoulou, Kosmas Kosmidis, Marilena Vlachou, Panos Macheras, “On the use of the Weibull function for the discernment of drug release mechanisms,” International Journal of Pharmaceutics 309 (2006) 44-50).
An example of the surprising effects of modification of these formulation design factors is shown below for the same API (acetaminophen or paracetamol), as an example of the different effects that can be achieved using the same amount of API in all formulations (120 mg of total acetaminophen in each example). […]

| SMILES | solubility in oily media / oil phase [1] | solubility in water [1] | log P [2] | release of API into the aqueous medium [3] |
| --- | --- | --- | --- | --- |
| CC(=O)Nc1ccc(O)cc1 [Acetaminophen, acetaminophen] | poorly soluble | poorly soluble | 4.6 |  |
| CC(=O)Oc1ccccc1C(=O)O [Acetyl salicylic acid, acetyl salicylic acid] | slightly soluble | soluble |  |  |
| C=C(C)[C@@H]1CCC(C)=C[C@H]1c1c(O)cc(CCCCC)cc1O [CBD, cannabinoidiol] | highly soluble | very slightly soluble | 7.75 |  |
| CN(C)CCC(c1ccc(Cl)cc1)c1ccccn1 (stereo not shown) [Chlorphenamine maleate, chlorphenamine maleate] |  |  | 3.7 |  |
| Cc1cccc(Nc2ccccc2C(=O)O)c1C [Mefenamic acid, mefenamic acid] | not soluble | very poorly soluble | 4.2 | no release |
